Data on 64 compounds can be found in patent US10150728B2, “Alkylene derivatives” (Shionogi & Co., Ltd., priority 2013, dated 2018).

As a reminder, the IC50 is the midpoint of a concentration-inhibition curve.

This assay addresses recombinant human ACC2 (Homo sapiens (Human), UniProt O00763). In words: Measurement of inhibitory activity on human ACC2 (MALDI-TOF MS, acetyl CoA to malonyl CoA conversion). The class given is biochemical. The settings on record: Tables 155-159. In outline: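 His-tagged human ACC2 (residues 27–2458) from baculovirus-infected Sf-9 cells was preincubated 1 h in pH 7.4 HEPES-KOH buffer with MgCl2, 6-10 mM potassium citrate, glutathione and BSA. Substrate solution held 1 mM ATP, 0.8 mM acetyl CoA and 25-50 mM bicarbonate. After 1–3 h at room temperature, malonyl CoA/(malonyl+acetyl CoA) was read by negative-mode MALDI-TOF MS; citrate, bicarbonate and time varied by enzyme lot.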

Chain of recombinant human ACC2 (O00763 27-2458): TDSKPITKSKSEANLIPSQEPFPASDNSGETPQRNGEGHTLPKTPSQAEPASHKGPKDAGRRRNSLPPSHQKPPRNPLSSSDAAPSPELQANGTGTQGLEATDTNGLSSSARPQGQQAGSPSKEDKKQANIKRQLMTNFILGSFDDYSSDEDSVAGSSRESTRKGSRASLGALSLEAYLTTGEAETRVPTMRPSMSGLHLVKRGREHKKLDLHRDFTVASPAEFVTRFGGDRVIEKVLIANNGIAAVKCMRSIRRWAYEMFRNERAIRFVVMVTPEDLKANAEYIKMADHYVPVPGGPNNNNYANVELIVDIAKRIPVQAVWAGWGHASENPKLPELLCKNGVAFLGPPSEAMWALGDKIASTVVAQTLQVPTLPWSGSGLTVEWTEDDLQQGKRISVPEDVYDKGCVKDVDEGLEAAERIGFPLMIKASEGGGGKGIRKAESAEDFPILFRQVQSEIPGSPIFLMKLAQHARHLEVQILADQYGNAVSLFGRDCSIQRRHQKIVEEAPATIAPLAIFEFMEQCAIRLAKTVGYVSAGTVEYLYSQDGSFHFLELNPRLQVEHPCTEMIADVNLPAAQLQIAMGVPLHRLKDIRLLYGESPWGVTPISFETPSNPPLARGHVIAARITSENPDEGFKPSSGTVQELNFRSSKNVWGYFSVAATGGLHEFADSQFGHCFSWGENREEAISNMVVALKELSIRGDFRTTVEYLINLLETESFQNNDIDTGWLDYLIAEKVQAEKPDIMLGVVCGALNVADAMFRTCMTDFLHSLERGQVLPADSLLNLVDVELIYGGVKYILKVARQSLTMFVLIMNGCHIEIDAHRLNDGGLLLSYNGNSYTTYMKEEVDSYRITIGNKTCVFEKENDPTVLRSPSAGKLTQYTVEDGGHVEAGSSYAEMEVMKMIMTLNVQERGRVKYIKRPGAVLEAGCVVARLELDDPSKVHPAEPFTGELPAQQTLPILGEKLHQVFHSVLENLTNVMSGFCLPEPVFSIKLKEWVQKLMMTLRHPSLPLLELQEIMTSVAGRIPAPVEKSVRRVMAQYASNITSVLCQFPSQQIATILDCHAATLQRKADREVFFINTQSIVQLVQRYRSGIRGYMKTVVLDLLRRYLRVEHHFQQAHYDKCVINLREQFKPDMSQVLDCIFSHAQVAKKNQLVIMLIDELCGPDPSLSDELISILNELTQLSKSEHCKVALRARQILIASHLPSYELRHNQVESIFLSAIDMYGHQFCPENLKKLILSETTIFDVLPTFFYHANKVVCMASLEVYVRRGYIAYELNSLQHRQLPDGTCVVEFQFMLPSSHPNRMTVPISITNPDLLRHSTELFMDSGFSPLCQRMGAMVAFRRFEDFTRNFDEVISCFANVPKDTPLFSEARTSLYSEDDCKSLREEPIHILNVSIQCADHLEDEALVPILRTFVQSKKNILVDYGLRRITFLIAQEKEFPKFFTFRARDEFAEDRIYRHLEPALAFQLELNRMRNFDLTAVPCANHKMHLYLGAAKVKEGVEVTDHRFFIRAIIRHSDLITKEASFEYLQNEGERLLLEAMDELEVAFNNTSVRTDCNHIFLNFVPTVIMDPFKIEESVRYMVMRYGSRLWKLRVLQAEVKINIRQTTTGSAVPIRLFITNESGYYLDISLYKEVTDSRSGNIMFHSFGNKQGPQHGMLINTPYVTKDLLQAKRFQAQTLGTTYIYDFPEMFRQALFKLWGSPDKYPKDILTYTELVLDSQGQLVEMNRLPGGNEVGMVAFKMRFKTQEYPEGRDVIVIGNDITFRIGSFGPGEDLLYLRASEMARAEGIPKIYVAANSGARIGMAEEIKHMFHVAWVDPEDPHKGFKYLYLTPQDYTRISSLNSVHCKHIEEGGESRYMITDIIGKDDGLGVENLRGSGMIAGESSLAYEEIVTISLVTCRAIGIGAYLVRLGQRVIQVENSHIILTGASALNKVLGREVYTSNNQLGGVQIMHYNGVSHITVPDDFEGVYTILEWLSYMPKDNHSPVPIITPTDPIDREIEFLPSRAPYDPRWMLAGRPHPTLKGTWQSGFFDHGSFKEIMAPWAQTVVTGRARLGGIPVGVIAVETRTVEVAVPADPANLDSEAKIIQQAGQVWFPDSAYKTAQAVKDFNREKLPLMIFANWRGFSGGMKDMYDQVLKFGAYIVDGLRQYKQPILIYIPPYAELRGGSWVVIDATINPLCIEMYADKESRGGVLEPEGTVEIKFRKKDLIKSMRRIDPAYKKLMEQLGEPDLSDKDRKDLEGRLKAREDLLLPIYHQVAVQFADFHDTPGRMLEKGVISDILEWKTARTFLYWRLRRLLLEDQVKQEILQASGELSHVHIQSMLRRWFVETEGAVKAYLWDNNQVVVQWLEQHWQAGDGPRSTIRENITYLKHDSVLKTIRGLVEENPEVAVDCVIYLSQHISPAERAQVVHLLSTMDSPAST

For the compound `CC(=O)N[C@@H](C)CO[C@H]1CC[C@H](Oc2ncc(-c3nccc(C#N)n3)cc2F)CC1` [Compound I-531], the IC50 came out at 481 nM.
For `CC(=O)N[C@@H](C)CO[C@H]1CC[C@H](Oc2ncc(-c3ncc(F)cn3)cc2C)CC1` [Compound I-532], the IC50 stood at 6 nM.
Turning to `CCc1cnc(-c2cnc(O[C@H]3CC[C@H](OC[C@H](C)NC(C)=O)CC3)c(F)c2)nc1` [Compound I-533], the IC50 turned out to be 102 nM.
As to `CC(=O)N[C@@H](C)CO[C@H]1CC[C@H](Oc2ncc(-c3ncc(C)cn3)cc2F)CC1` [Compound I-534], the IC50 was determined as 67 nM.
`CC(=O)N[C@@H](C)CO[C@H]1CC[C@H](Oc2ncc(-c3ncc(Cl)cn3)cc2C#N)CC1` [Compound I-535]: the IC50 was 30 nM.
As to `CC(=O)N[C@@H](C)CO[C@H]1CC[C@H](Oc2ncc(-c3ncc(C4CC4)cn3)cc2F)CC1` [Compound I-536], the IC50 is 28 nM.
For `CC(=O)N[C@@H](C)CO[C@H]1CC[C@H](Oc2ncc(-c3ncc(F)cn3)cc2OCc2ccccc2)CC1` [Compound I-537], the IC50 was 975 nM.
For `C[C@@H](CO[C@H]1CC[C@H](Oc2ncc(-c3ncc(F)cn3)cc2F)CC1)NC(N)=O` [Compound I-538], the IC50 was 71 nM.
With `CCOC(=O)c1cc(C(=O)N[C@@H](C)CO[C@H]2CC[C@H](Oc3ncc(-c4ncc(F)cn4)cc3F)CC2)ccn1` [Compound I-539], the IC50 came to 92 nM.
As to `C[C@@H](CO[C@H]1CC[C@H](Oc2ncc(-c3ncc(F)cn3)cc2F)CC1)NS(C)(=O)=O` [Compound I-540], the IC50 came out at 323 nM.
Consider `COC(=O)N[C@@H](C)CO[C@H]1CC[C@H](Oc2ncc(-c3ncc(F)cn3)cc2F)CC1` [Compound I-541], for which the IC50 was found to be 130 nM.
Take `CC(=O)N[C@@H](C)CO[C@H]1CC[C@H](Oc2ncc(-c3ncc(F)cn3)cc2F)CC1` [Compound I-542]: the IC50 stood at 6 nM.
Consider `CC(=O)N[C@@H](C)CC[C@H]1CC[C@H](Oc2ncc(-c3ncc(C(F)(F)F)cn3)cc2F)CC1` [Compound I-543], for which the IC50 was 14 nM.
With `CC(=O)N[C@@H](C)CC[C@H]1CC[C@H](Oc2ncc(-c3ncc(Cl)cn3)cc2F)CC1` [Compound I-544], the IC50 amounted to 4 nM.
For `CC(=O)N[C@@H](C)CO[C@H]1CC[C@H](Oc2ncc(-c3ncc(C(F)(F)F)cn3)cc2F)CC1` [Compound I-545], the IC50 turned out to be 46 nM.
Then `CC(=O)N[C@@H](C)CO[C@H]1CC[C@H](Oc2ncc(-c3ncc(C(F)(F)F)cn3)cc2C#N)CC1` [Compound I-546], with 66 nM.
Turning to `CC(=O)N[C@@H](C)CO[C@H]1CC[C@H](Oc2nc3ccc(Br)cc3s2)CC1` [Compound I-547], the IC50 amounted to 104 nM.
Consider `CC(=O)N[C@@H](C)CO[C@H]1CC[C@H](Oc2ncc3cc(OCC4CC4)ccc3n2)CC1` [Compound I-548], for which the half-inhibitory concentration (IC50) was determined as 124 nM.
With `CC(=O)N[C@@H](C)CO[C@H]1CC[C@H](Oc2nc3cc(Br)ccc3s2)CC1` [Compound I-549], the IC50 came out at 37 nM.
Then `CC(=O)N[C@@H](C)CO[C@H]1CC[C@H](Oc2nc3ccc(OCC4CC4)cc3s2)CC1` [Compound I-550], with 21 nM; and `CC(=O)N[C@@H](C)CO[C@H]1CC[C@H](Oc2nc3cnc(OCC(F)F)cc3s2)CC1` [Compound I-551], with 15 nM.
For the compound `CC(=O)N[C@@H](C)CO[C@H]1CC[C@H](Oc2nc3cnc(OCC(F)F)c(F)c3s2)CC1` [Compound I-552], the IC50 stood at 13 nM.
Regarding `CC(=O)N[C@@H](C)CO[C@H]1CC[C@H](Oc2nc3ccc(OCC(F)F)nc3s2)CC1` [Compound I-553], the IC50 stood at 196 nM.
As for `CC(=O)N[C@@H](C)CO[C@H]1CC[C@H](Oc2ncc3cc(OCC(F)F)ccc3n2)CC1` [Compound I-554], the IC50 was found to be 620 nM.
Turning to `CC(=O)N[C@@H](C)CO[C@H]1CC[C@H](Oc2ncc3c(Cl)c(OCC4CC4)ccc3n2)CC1` [Compound I-555], the IC50 worked out at 34 nM.
`CC(=O)N[C@@H](C)CO[C@H]1CC[C@H](Oc2nc3ccc(Br)cc3n2C)CC1` [Compound I-556]: the IC50 amounted to 105 nM.
In the case of `CC(=O)N[C@@H](C)CO[C@H]1CC[C@H](Oc2nc3cc(Br)ccc3n2C)CC1` [Compound I-557], the IC50 is 216 nM.
Regarding `CC(=O)N[C@@H](C)CO[C@H]1CC[C@H](Oc2nc3ccc(OCc4ccccc4)cc3n2C)CC1` [Compound I-558], the IC50 is 43 nM.
`CCOc1ccc2nc(O[C@H]3CC[C@H](OC[C@H](C)NC(C)=O)CC3)n(C)c2c1` [Compound I-559]: the IC50 stood at 43 nM.
As for `CC(=O)N[C@@H](C)CO[C@H]1CC[C@H](Oc2nc3ccc(OC(C)C)cc3n2C)CC1` [Compound I-560], the IC50 was determined as 101 nM.
In the case of `CC(=O)N[C@@H](C)CO[C@H]1CC[C@H](Oc2nc3ccc(OCC4CC4)cc3n2C)CC1` [Compound I-561], the half-inhibitory concentration (IC50) came out at 104 nM.
Take `CCOc1ccc2nc(O[C@H]3CC[C@H](OC[C@H](C)NC(C)=O)CC3)n(C(C)C)c2c1` [Compound I-562]: the IC50 is 350 nM.
Then `CCOc1cc2c(cn1)nc(O[C@H]1CC[C@H](OC[C@H](C)NC(C)=O)CC1)n2C` [Compound I-563], with 101 nM; and `CCOc1ccc2c(c1)nc(O[C@H]1CC[C@H](OC[C@H](C)NC(C)=O)CC1)n2C` [Compound I-564], with 385 nM; and `CC(=O)N[C@@H](C)CO[C@H]1CC[C@H](Oc2nc3cc(OC(C)C)ccc3n2C)CC1` [Compound I-566], with 304 nM.
Then `CC(=O)N[C@@H](C)CO[C@H]1CC[C@H](Oc2nc3cc(OCC4CC4)ccc3n2C)CC1` [Compound I-567], with 167 nM; and `CCOc1ccc2nc(O[C@H]3CC[C@H](OC[C@H](C)NC(C)=O)CC3)n(C3CC3)c2c1` [Compound I-568], with 225 nM; and `CC(=O)N[C@@H](C)CO[C@H]1CC[C@H](Oc2nc3ccc(OCC(F)F)cc3n2C)CC1` [Compound I-569], with 86 nM.
For `COc1ccc2c(c1)nc(O[C@H]1CC[C@H](OC[C@H](C)NC(C)=O)CC1)n2C` [Compound I-570], the IC50 stood at 935 nM.
Then `CC(=O)N[C@@H](C)CO[C@H]1CC[C@H](Oc2nc3ccc(OCC(F)(F)F)cc3n2C)CC1` [Compound I-571], with 166 nM; and `CC(=O)N[C@@H](C)CO[C@H]1CC[C@H](Oc2nc3ccc(OC(F)(F)F)cc3n2C)CC1` [Compound I-572], with 227 nM; and `CCCc1ccc2nc(O[C@H]3CC[C@H](OC[C@H](C)NC(C)=O)CC3)n(C)c2c1` [Compound I-573], with 68 nM.
Under `CC(=O)N[C@@H](C)CO[C@H]1CC[C@H](Oc2nc3ccc(C4CC4)cc3n2C)CC1` [Compound I-574] stands 129 nM; under `CCSc1ccc2nc(O[C@H]3CC[C@H](OC[C@H](C)NC(C)=O)CC3)n(C)c2c1` [Compound I-577], 62 nM.
Consider `CC(=O)N[C@@H](C)CO[C@H]1CC[C@H](Oc2nc3ccc(SCC(C)C)cc3n2C)CC1` [Compound I-578], for which the IC50 amounted to 110 nM.
As to `CCOc1ccc2nc(O[C@H]3CC[C@H](OC[C@H](C)NC(C)=O)CC3)n(CC)c2c1` [Compound I-579], the IC50 stood at 334 nM.
In the case of `CC(=O)N[C@@H](C)CO[C@H]1CC[C@H](Oc2nc3ccc(-c4ccccc4)cc3n2C)CC1` [Compound I-582], the IC50 was determined as 168 nM.
Regarding `CCc1ccc2nc(O[C@H]3CC[C@H](OC[C@H](C)NC(C)=O)CC3)n(C)c2c1` [Compound I-583], the IC50 was 71 nM.
For `CC(=O)N[C@@H](C)CO[C@H]1CC[C@H](Oc2nc3ccc(C(C)C)cc3n2C)CC1` [Compound I-585], the IC50 is 77 nM.
Then `CC(=O)N[C@@H](C)CO[C@H]1CC[C@H](Oc2nc3ccc(Oc4ccccc4)cc3n2C)CC1` [Compound I-586], with 9 nM.
In the case of `CC(=O)N[C@@H](C)CO[C@H]1CC[C@H](Oc2nc3cc(C(F)(F)F)ccc3n2C)CC1` [Compound I-587], the IC50 came to 87 nM.
On to `CC(=O)N[C@@H](C)CO[C@H]1CC[C@H](Oc2nc3ccc(Oc4ccccn4)cc3n2C)CC1` [Compound I-590], for which the IC50 was found to be 584 nM.
Under `CC(=O)N[C@@H](C)CO[C@H]1CC[C@H](Oc2nc3cnc(Oc4ccccc4)cc3n2C)CC1` [Compound I-592] stands 110 nM; under `CC(=O)N[C@@H](C)CO[C@H]1CC[C@H](Oc2nc3ccc(Oc4cccnc4)cc3n2C)CC1` [Compound I-593], 80 nM.
Turning to `CC(=O)N[C@@H](C)CO[C@H]1CC[C@H](Oc2nc3ccc(Oc4ccncc4)cc3n2C)CC1` [Compound I-594], the IC50 amounted to 383 nM.
For the compound `CC(=O)N[C@@H](C)CO[C@H]1CC[C@H](Oc2nc3ccc(Oc4ccc(F)cc4)cc3n2C)CC1` [Compound I-596], the IC50 stood at 10 nM.
Consider `COc1ccc2nc(O[C@H]3CC[C@H](OC[C@H](C)NC(C)=O)CC3)n(C)c2c1F` [Compound I-599], for which the IC50 was determined as 23 nM.
Consider `CC(=O)N[C@@H](C)CO[C@H]1CC[C@H](Oc2nc3ccc(OCc4ccccc4)c(F)c3n2C)CC1` [Compound I-600], for which the IC50 is 13 nM.
Under `CCOc1ccc2nc(O[C@H]3CC[C@H](OC[C@H](C)NC(C)=O)CC3)n(C)c2c1F` [Compound I-601] stands 8 nM; under `CC(=O)N[C@@H](C)CO[C@H]1CC[C@H](Oc2nc3ccc(OC(C)C)c(F)c3n2C)CC1` [Compound I-602], 12 nM.
Then `CCOc1c(Cl)cc2nc(O[C@H]3CC[C@H](OC[C@H](C)NC(C)=O)CC3)n(C)c2c1Cl` [Compound I-603], with 7 nM; and `CCOc1ccc2nc(O[C@H]3CC[C@H](OC[C@H](C)NC(C)=O)CC3)n(C)c2c1Cl` [Compound I-604], with 6 nM; and `CCOc1ccc2nc(O[C@H]3CC[C@H](OC[C@H](C)NC(C)=O)CC3)n(C)c2c1Br` [Compound I-605], with 13 nM.
For `CCOc1ccc2nc(O[C@H]3CC[C@H](OC[C@H](C)NC(C)=O)CC3)n(C)c2c1C` [Compound I-606], the IC50 amounted to 74 nM.
